Assay results published in ChEMBL document CHEMBL4145608, “Dehydrodiconiferyl Alcohol Inhibits Osteoclast Differentiation and Ovariectomy-Induced Bone Loss through Acting as an Estrogen Receptor Agonist” (J Nat Prod, 2018).
Calls of active or inactive are those of the source. No cut-off for these calls is given here.

Key:
[1] = system: RAW264.7; assay: Inhibition of NF-kappaB/p38 MAPK signaling pathway in mouse RAW264.7 cells assessed as reduction in RANKL-induced TRAP mRNA level after 24 hrs by qRT-PCR method; type: cell-based
[2] = system: RAW264.7; assay: Inhibition of NF-kappaB/p38 MAPK signaling pathway in mouse RAW264.7 cells assessed as reduction in RANKL-induced MMP-9 mRNA level after 24 hrs by qRT-PCR method; type: cell-based
[3] = system: RAW264.7; assay: Inhibition of NF-kappaB/p38 MAPK signaling pathway in mouse RAW264.7 cells assessed as reduction in RANKL-induced c-Fos protein expression level after 24 hrs by Western blot method; type: cell-based
[4] = system: RAW264.7; assay: Inhibition of NF-kappaB signaling pathway in mouse RAW264.7 cells assessed as reduction in RANKL-induced IkappaB phosphorylation at 10 to 40 uM after 30 mins by Western blot method; type: cell-based
[5] = system: RAW264.7; assay: Inhibition of RANKL-induced osteoclast differentiation in mouse RAW264.7 cells harboring AMPKalpha1 siRNA assessed as decrease in size of TRAP-positive multinucleated cells after 5 days by microscopy; type: functional, cell-based
[6] = system: RAW264.7; assay: Inhibition of RANKL-induced osteoclast differentiation in mouse RAW264.7 cells harboring AMPKalpha1 siRNA assessed as decrease in TRAP mRNA level at 20 uM after 24 hrs by qRT-PCR method; type: functional, cell-based
[7] = system: RAW264.7; assay: Inhibition of RANKL-induced osteoclast differentiation in mouse RAW264.7 cells assessed as TRAP activity after 5 days in presence of PKA inhibitor H89; type: functional, cell-based
[8] = system: RAW264.7; assay: Inhibition of RANKL-induced osteoclast differentiation in mouse RAW264.7 cells assessed as TRAP activity after 5 days in presence of estrogen receptor antagonist fulvestrant; type: functional, cell-based
[9] = target: Calcium/calmodulin-dependent protein kinase kinase 2 (Mus musculus) (UniProt Q8C078); assay: Inhibition of RANKL-induced CAMKKbeta phosphorylation in mouse RAW264.7 cells at 10 to 40 uM after 24 hrs by Western blot analysis; type: cell-based
[10] = system: RAW264.7; assay: Inhibition of RANKL-induced osteoclast differentiation in mouse RAW264.7 cells assessed as decrease in number of TRAP-positive multinucleated cells at 20 uM after 5 days in presence of ERalpha antagonist MPP by microscopy; type: functional, cell-based
[11] = system: RAW264.7; assay: Inhibition of RANKL-induced osteoclast differentiation in mouse RAW264.7 cells assessed as decrease in c-Fos mRNA level at 20 uM after 24 hrs in presence of ERalpha antagonist MPP by qRT-PCR method; type: functional, cell-based
[12] = system: RAW264.7; assay: Inhibition of RANKL-induced osteoclast differentiation in mouse RAW264.7 cells assessed as decrease in NFATc1 mRNA level at 20 uM after 24 hrs in presence of ERalpha antagonist MPP by qRT-PCR method; type: functional, cell-based
[13] = system: RAW264.7; assay: Inhibition of RANKL-induced osteoclast differentiation in mouse RAW264.7 cells assessed as decrease in number of TRAP-positive multinucleated cells at 20 uM after 5 days in presence of ERbeta antagonist PHTPP by microscopy; type: functional, cell-based
[14] = system: RAW264.7; assay: Inhibition of RANKL-induced osteoclast differentiation in mouse RAW264.7 cells harboring ERalpha siRNA assessed as decrease in TRAP activity at 20 uM after 5 days by microscopy; type: functional, cell-based
[15] = system: RAW264.7; assay: Inhibition of RANKL-induced osteoclast differentiation in mouse RAW264.7 cells harboring ERalpha siRNA assessed as decrease in TRAP mRNA level at 20 uM after 24 hrs by qRT-PCR method; type: functional, cell-based
[16] = system: RAW264.7; assay: Inhibition of RANKL-induced osteoclast differentiation in mouse RAW264.7 cells harboring ERbeta siRNA assessed as decrease in NFATc1 mRNA level at 20 uM after 24 hrs by qRT-PCR method; type: functional, cell-based
[17] = target: T1, Estrogen receptor (Homo sapiens, UniProt P03372); assay: Inhibition of fluoromone binding to recombinant human full length untagged ERalpha expressed in insect cells after 2 hrs by fluorescence polarization assay
T1 sequence (P03372 whole entry): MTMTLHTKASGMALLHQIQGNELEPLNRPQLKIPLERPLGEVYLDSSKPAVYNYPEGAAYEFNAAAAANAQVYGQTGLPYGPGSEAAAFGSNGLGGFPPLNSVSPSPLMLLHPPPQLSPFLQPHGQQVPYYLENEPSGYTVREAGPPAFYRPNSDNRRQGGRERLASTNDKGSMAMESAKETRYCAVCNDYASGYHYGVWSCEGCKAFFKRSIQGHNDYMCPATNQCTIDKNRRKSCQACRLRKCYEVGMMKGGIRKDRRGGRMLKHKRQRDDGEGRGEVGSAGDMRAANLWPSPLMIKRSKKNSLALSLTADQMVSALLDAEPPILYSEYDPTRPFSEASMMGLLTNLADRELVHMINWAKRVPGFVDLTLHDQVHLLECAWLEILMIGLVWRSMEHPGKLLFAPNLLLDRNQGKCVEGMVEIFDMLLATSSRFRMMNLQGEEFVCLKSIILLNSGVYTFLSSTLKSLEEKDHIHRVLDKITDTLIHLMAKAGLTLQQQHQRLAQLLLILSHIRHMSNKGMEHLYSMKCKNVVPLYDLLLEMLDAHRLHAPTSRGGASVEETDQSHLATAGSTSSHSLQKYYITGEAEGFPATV

[18] = target: Estrogen receptor beta (Homo sapiens, UniProt Q92731); assay: Inhibition of fluoromone binding to recombinant human full length untagged ERbeta expressed in insect cells after 2 hrs by fluorescence polarization assay
[19] = system: Mus musculus; assay: Anti-osteoporotic activity in Balb/c mouse assessed as inhibition of OVX-mediated decrease in trabecular thickness in femur at 25 to 100 mg/kg, ip administered for 4 weeks daily by microcomputed tomography; type: functional, organism-based
[20] = system: Mus musculus; assay: Anti-osteoporotic activity in Balb/c mouse assessed as inhibition of OVX-mediated decrease in bone marrow density in femur at 25 to 100 mg/kg, ip administered for 4 weeks daily by microcomputed tomography; type: functional, organism-based
[21] = system: Mus musculus; assay: Anti-osteoporotic activity in Balb/c mouse assessed as inhibition of OVX-induced serum NTx level at 25 to 100 mg/kg, ip administered for 4 weeks daily by ELISA; type: functional, organism-based
[22] = system: Mus musculus; assay: Anti-osteoporotic activity in Balb/c mouse assessed as inhibition of OVX-induced serum CTx level at 25 to 100 mg/kg, ip administered for 4 weeks daily by ELISA; type: functional, organism-based
[23] = system: Mus musculus; assay: Anti-osteoporotic activity in Balb/c mouse assessed as inhibition of OVX-induced NFATc1 mRNA expression level in bone marrow at 25 to 100 mg/kg, ip administered for 4 weeks daily by qRT-PCR method; type: functional, organism-based
[24] = system: Mus musculus; assay: Anti-osteoporotic activity in Balb/c mouse assessed as inhibition of OVX-induced cathepsin K mRNA expression level in bone marrow at 25 to 100 mg/kg, ip administered for 4 weeks daily by qRT-PCR method; type: functional, organism-based
[25] = system: Mus musculus; assay: Anti-osteoporotic activity in Balb/c mouse assessed as inhibition of OVX-induced c-Fos mRNA expression level in bone marrow at 25 to 100 mg/kg, ip administered for 4 weeks daily by qRT-PCR method; type: functional, organism-based

Chain of Calcium/calmodulin-dependent protein kinase kinase 2 (Mus musculus) (Q8C078 2-588 limits assumed): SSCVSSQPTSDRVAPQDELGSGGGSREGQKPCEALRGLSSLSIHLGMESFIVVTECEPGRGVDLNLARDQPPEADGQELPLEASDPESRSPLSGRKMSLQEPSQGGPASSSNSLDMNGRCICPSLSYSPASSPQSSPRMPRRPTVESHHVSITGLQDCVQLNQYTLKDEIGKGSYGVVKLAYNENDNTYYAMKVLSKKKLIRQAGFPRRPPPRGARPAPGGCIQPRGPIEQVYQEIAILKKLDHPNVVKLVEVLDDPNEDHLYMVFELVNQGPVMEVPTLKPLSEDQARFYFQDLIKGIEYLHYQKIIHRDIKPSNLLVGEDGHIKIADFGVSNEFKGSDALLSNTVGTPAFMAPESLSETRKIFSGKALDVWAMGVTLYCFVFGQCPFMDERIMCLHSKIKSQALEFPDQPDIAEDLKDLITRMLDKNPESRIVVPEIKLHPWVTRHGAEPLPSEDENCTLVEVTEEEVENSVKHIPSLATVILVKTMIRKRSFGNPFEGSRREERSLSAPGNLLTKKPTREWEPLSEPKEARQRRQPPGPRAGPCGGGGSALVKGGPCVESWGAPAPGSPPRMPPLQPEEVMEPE
Chain of Estrogen receptor beta (Q92731 whole entry): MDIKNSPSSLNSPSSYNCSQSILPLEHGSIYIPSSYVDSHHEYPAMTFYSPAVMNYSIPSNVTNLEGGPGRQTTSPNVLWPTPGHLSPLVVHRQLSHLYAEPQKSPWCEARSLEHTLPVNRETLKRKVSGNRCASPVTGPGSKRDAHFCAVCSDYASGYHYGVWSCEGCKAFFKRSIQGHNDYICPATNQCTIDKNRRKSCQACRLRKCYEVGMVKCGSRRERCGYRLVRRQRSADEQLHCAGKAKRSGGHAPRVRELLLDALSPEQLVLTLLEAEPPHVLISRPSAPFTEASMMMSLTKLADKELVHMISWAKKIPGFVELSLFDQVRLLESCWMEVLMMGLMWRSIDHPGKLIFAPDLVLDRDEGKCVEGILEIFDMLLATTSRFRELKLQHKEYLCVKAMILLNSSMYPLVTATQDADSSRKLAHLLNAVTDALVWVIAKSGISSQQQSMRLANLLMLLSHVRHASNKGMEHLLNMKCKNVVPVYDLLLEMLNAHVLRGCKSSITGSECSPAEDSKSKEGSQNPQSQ

## COc1cc(C2Oc3c(OC)cc(/C=C/CO)cc3C2CO)ccc1O (stereo not given)
[1]
  inhibition: Dose-dependent effect
[2]
  inhibition: Dose-dependent effect
[3]
  inhibition: Dose-dependent effect
[4]
  inhibition: Active
[5]
  inhibition: inactive
[6]
  inhibition: inactive
[7]
  inhibition: Active
[8]
  inhibition: inactive
[9]
  inhibition: inactive
[10]
  inhibition: inactive
[11]
  inhibition: inactive
[12]
  inhibition: inactive
[13]
  inhibition: Active
[14]
  inhibition: inactive
[15]
  inhibition: inactive
[16]
  inhibition: Active
[17]
  IC50: 61.9 nM
[18]
  IC50: 286 nM
[19]
  inhibition: Active
[20]
  inhibition: Active
[21]
  inhibition: Active
[22]
  inhibition: Active
[23]
  inhibition: Active
[24]
  inhibition: Active
[25]
  inhibition: Active
